According to patent publication US7208142B2, “Indanylidene compounds” (Symrise GmbH & Co. KG, priority 2000, dated 2007):

Key:
[1] = Photostability: irradiation in a Suntester, concentration decrease of the UV filters; type: physicochemical
Source text: The values give the concentration decrease of the UV filters in percentage following irradiation (dose in J/cm^2).

[2] = UV absorption of the compounds (E1/1 at λmax); type: physicochemical
[3] = formulation Example 1, 72 J/cm^2, 765 W/m^2
[4] = formulation Example 1, 144 J/cm^2, 765 W/m^2

| Compound | concentration decrease of the UV filter following irradiation [1, 3] | concentration decrease of the UV filter following irradiation [1, 4] | λmax [2] | also measured |
| --- | --- | --- | --- | --- |
| CCCOC(=O)/C(C#N)=C1\CC(C)(C)c2cc(OC)c(OC)cc21 [Example A1] | 10% | 13% |  | concentration decrease of the UV filter following irradiation ([1]; combination A1 + OMC, formulation Example 12, 72 J/cm^2): 22%; concentration decrease of the UV filter following irradiation ([1]; combination A1 + OMC, formulation Example 12, 144 J/cm^2): 37% |
| COC(=O)/C(C#N)=C1\CC(C)(C)c2cc(OC)c(OCC(C)C[Si](C)(O[Si](C)(C)C)O[Si](C)(C)C)cc21 (stereo not shown) [Example A2] | 1% | 6% |  | concentration decrease of the UV filter following irradiation ([1]; combination A2 + OMC, formulation Example 12, 72 J/cm^2): 14%; concentration decrease of the UV filter following irradiation ([1]; combination A2 + OMC, formulation Example 12, 144 J/cm^2): 26% |
| COc1cc2c(cc1OC)C(C)(C)C/C2=C(/C#N)C(=O)C(C)(C)C [Example 1, 2-(5,6-Dimethoxy-3,3-dimethyl-1-indanylidene)-4,4-dimethyl-3-oxo-pentanonitrile] |  |  | 373 nm |  |
| COc1cc2c(cc1OC(C)=O)/C(=C(\C#N)C(=O)C(C)(C)C)CC2(C)C [Example 8, 2-(6-Acetoxy-3,3-dimethyl-5-methoxy-1-indanylidene)-4,4-dimethyl-3-oxo-pentanonitrile] |  |  | 355/302 | E1/1 (specific extinction at λmax) [2]: 420/280 |
| COc1c(C)cc2c(c1C)C(C)(C)C/C2=C(/C#N)C(=O)C(C)(C)C [Example 2, 2-(5-Methoxy-3,3,4,6-tetramethyl-1-indanylidene)-4,4-dimethyl-3-oxo-pentanonitrile] |  |  | 340 nm |  |
| Cc1cc2c(cc1C)C(C)(C)C/C2=C(/C#N)C(=O)C(C)(C)C [Example 3, 2-(3,3,5,6-tetramethyl-1-indanylidene)-4,4-dimethyl-3-oxo-pentanonitrile] |  |  | 342 nm |  |
| Cc1ccc2c(c1)/C(=C(\C#N)C(=O)C(C)(C)C)CC2(C)C [Example 4, 2-(3,3,6-trimethyl-1-indanylidene)-4,4-dimethyl-3-oxo-pentanonitrile] |  |  | 335/316 | E1/1 (specific extinction at λmax) [2]: 588/550 |
| COc1cc2c(cc1OC)C(C)(C)C/C2=C(/C#N)C(=O)C(C)(C)C [Example B1] | 2% | 3% |  | concentration decrease of the UV filter following irradiation ([1]; combination B1 + OMC, formulation Example 12, 72 J/cm^2): 2%; concentration decrease of the UV filter following irradiation ([1]; combination B1 + OMC, formulation Example 12, 144 J/cm^2): 3% |
